# Experimental data from US8119563B2, “N-substituted azacycles” (FMC Corporation, priority 2003, dated 2012).
# Test system: tobacco budworm (Heliothis virescens [Fabricius])
# Test: surface-treated diet test, insecticidal activity against tobacco budworm
# Type: in vivo
# Design: mortality: concentration or dose not given beside the values
# Conditions: 0.25 millimoles of candidate insecticide on the surface of the diet, second instar larvae, five-day exposure
# Method: Candidate insecticides were evaluated for activity against the tobacco budworm (Heliothis virescens [Fabricius]) in a surface-treated diet test.
# In this test one mL of molten (65-70° C.) wheat germ-based artificial diet was pipetted into each well of a four by six (24 well) multi-well plate (ID# 430345-15.5 mm dia.×17.6 mm deep; Corning Costar Corp., One Alewife Center, Cambridge, Mass. 02140). The diet was allowed to cool to ambient temperature before treatment with candidate insecticide.
# For a determination of insecticidal activity, solutions of the candidate insecticides were prepared for testing using a Packard 204DT Multiprobe® Robotic System (Packard Instrument Company, 800 Research Parkway, Meriden, Conn. 06450), in which the robot first diluted a standard 50 millimolar DMSO solution of candidate insecticide with a 1:1 water/acetone solution (V/V) in a ratio of 1:7 stock solution to water/acetone. The robot subsequently pipetted 40 microliters of the so-prepared solution onto the surface of the diet in each of three wells in the 24 multi-well plate. The process was repeated with solutions of seven other candidate insecticides. Once treated, the contents of the multi-well plate were allowed to dry, leaving 0.25 millimoles of candidate insecticide on the surface of the diet, or a concentration of 0.25 millimolar. Appropriate untreated controls containing only DMSO on the diet surface were also included in this test.
# For evaluations of the insecticidal activity of a candidate insecticide at varying rates of application, the test was established as described above using sub-multiples of the standard 50 millimolar DMSO solution of candidate insecticide. For example, the standard 50 millimolar solution was diluted by the robot with DMSO to give 5, 0.5, 0.05, 0.005, 0.0005 millimolar, or more dilute solutions of the candidate insecticide. In these evaluations there were six replicates of each rate of application placed on the surface of the diet in the 24 multi-well plate, for a total of four rates of application of candidate insecticide in each plate.
# In each well of the test plate was placed one second instar tobacco budworm larvea, each weighing approximately five milligrams. After the larvae were placed in each well, the plate was sealed with clear polyfilm adhesive tape. The tape over each well was perforated to ensure an adequate air supply. The plates were then held in a growth chamber at 25° C. and 60% relative humidity for five days (light 14 hours/day).
# After the five-day exposure period insecticidal activity for each rate of application of candidate insecticide was assessed as percent inhibition of insect weight relative to the weight of insects from untreated controls, and percent mortality when compared to the total number of insects infested.
# The test compounds of formula I are identified by numbers that correspond to those in Table 1.
# [1] = compared to total number of insects infested
# [2] = inhibition of insect weight relative to untreated controls
smiles,measurement,setting,value
OC1(C(c2ccc(OC(F)(F)F)cc2)c2ccc(OC(F)(F)F)cc2)CC[N+](O)(Cc2ccc(Oc3ccccn3)cc2)CC1.[Cl-] (stereo not drawn) [Compound 497],Percent Mortality,[1],100%
same,Percent Growth Inhibition,[2],100%
CCCOC(=O)Nc1ccc(CN2CCC(O)(C(c3ccc(C(F)(F)F)cc3)c3ccc(C(F)(F)F)cc3)CC2)cc1 [Compound 313],Percent Mortality,[1],100%
same,Percent Growth Inhibition,[2],100%
O=Cc1ccc(CN2CCC(O)(C(O)(c3ccc(OC(F)(F)F)cc3)c3ccc(OC(F)(F)F)cc3)CC2)cc1 [Compound 418],Percent Mortality,[1],0%
same,Percent Growth Inhibition,[2],83%
Cc1ccc(Oc2ccc(C[N+]3([O-])CCC(O)(C(c4ccc(OC(F)(F)F)cc4)c4ccc(OC(F)(F)F)cc4)CC3)cc2)nn1 (stereo not drawn) [Compound 413],Percent Mortality,[1],100%
same,Percent Growth Inhibition,[2],100%
"Cn1nnc(-c2ccc(CN3CCC(O)(C(O)(c4ccc(OC(F)(F)F)cc4)c4ccc(OC(F)(F)F)cc4)CC3)cc2)n1 [Compound 93, 4-{bis[4-(trifluoromethoxy)phenyl]hydroxymethyl}-1-{[4-(2-methyl(1,2,3,4-tetrazol-5-yl))phenyl]methyl}piperidin-4-ol]",mortality,"Heliothis virescens, 120 h, compared to total number of insects infested, read-out: Percent Mortality",100%
same,pest or weed control at 0.25 mmol/well,"Heliothis virescens, 120 h, inhibition of insect weight relative to untreated controls, read-out: Percent Growth Inhibition",100%
Oc1ccc(CN2CCC(O)(C(c3ccc(C(F)(F)F)cc3)c3ccc(C(F)(F)F)cc3)CC2)cc1 [Compound 302],Percent Mortality,[1],17%
same,Percent Growth Inhibition,[2],100%
[O-][N+]1(Cc2ccc(C3OCCO3)cc2)CCC(O)(C(c2ccc(OC(F)(F)F)cc2)c2ccc(OC(F)(F)F)cc2)CC1 (stereo not drawn) [Compound 341],Percent Mortality,[1],100%
same,Percent Growth Inhibition,[2],100%
Cn1nnc(-c2ccc(C[N+]3([O-])CCC(O)(C(O)(c4ccc(OC(F)(F)F)cc4)c4ccc(OC(F)(F)F)cc4)CC3)cc2)n1 (stereo not drawn) [Compound 122],Percent Mortality,[1],100%
same,Percent Growth Inhibition,[2],100%
O=S(=O)([O-])C(F)(F)C(F)(F)C(F)(F)C(F)(F)F.OC1(C(c2ccc(OC(F)(F)F)cc2)c2ccc(OC(F)(F)F)cc2)CC[N+](O)(Cc2ccc(Oc3ccccn3)cc2)CC1 (stereo not drawn) [Compound 508],Percent Mortality,[1],100%
same,Percent Growth Inhibition,[2],100%
CCOC(OCC)c1ccc(C[N+]2([O-])CCC(O)(C(c3ccc(OC(F)(F)F)cc3)c3ccc(OC(F)(F)F)cc3)CC2)cc1 (stereo not drawn) [Compound 351],Percent Mortality,[1],100%
same,Percent Growth Inhibition,[2],100%
OC1(C(c2ccc(C(F)(F)F)cc2)c2ccc(C(F)(F)F)cc2)CCN(Cc2ccc(Oc3ccc(Cl)nn3)cc2)CC1 [Compound 307],Percent Mortality,[1],100%
same,Percent Growth Inhibition,[2],100%
CC1(C)COC(c2ccc(CN3CCC(O)(C(c4ccc(OC(F)(F)F)cc4)c4ccc(OC(F)(F)F)cc4)CC3)cc2)OC1 [Compound 280],Percent Mortality,[1],100%
same,Percent Growth Inhibition,[2],100%
Cc1cc(Cl)ccc1C(c1ccc(OC(F)(F)F)cc1)C1(O)CCN(Cc2ccc(Oc3ccccn3)cc2)CC1 (stereo not drawn) [Compound 436],Percent Mortality,[1],100%
same,Percent Growth Inhibition,[2],100%
CCCCNC(=O)Oc1ccc(CN2CCC(O)(C(c3ccc(OC(F)(F)F)cc3)c3ccc(OC(F)(F)F)cc3)CC2)cc1 [Compound 326],Percent Mortality,[1],100%
same,Percent Growth Inhibition,[2],100%
Cc1cccnc1Oc1ccc(CN2CCC(O)(C(c3ccc(OC(F)(F)F)cc3)c3ccc(OC(F)(F)F)cc3)CC2)cc1 [Compound 271],Percent Mortality,[1],100%
same,Percent Growth Inhibition,[2],100%
CCCOC(=O)Nc1ccc(C[N+]2([O-])CCC(O)(C(c3ccc(C(F)(F)F)cc3)c3ccc(C(F)(F)F)cc3)CC2)cc1 (stereo not drawn) [Compound 390],Percent Mortality,[1],100%
same,Percent Growth Inhibition,[2],100%
O=C(Nc1ccc(Cl)cc1)Oc1ccc(CN2CCC(O)(C(c3ccc(OC(F)(F)F)cc3)c3ccc(OC(F)(F)F)cc3)CC2)cc1 [Compound 324],Percent Mortality,[1],33%
same,Percent Growth Inhibition,[2],100%
CCOC(=O)COc1ccc(CN2CCC(O)(C(c3ccc(OC(F)(F)F)cc3)c3ccc(OC(F)(F)F)cc3)CC2)cc1 [Compound 279],Percent Mortality,[1],83%
same,Percent Growth Inhibition,[2],100%
